From patent US20160362416A1, “ANTIVIRAL COMPOUNDS” (Gilead Sciences, Inc., priority 2012, published 2016) come the findings set out here.

Molecules are shown by their SMILES.

Series [1] has as its system stable HCV 1b RLuc replicon cells (genotype 1b Con1 replicon). Put plainly: HCV genotype 1b RLuc replicon reporter assay. Particulars: Hepatitis C virus; stable genotype 1b Con1 RLuc replicon cells, 72 hours. It is filed as cell-based. The essentials:
(§1)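 Chimeric replicons for 3a and 4a use a Pi-RLuc reporter and were transiently transfected into Huh-Lunet cells; the 2b chimera (RLuc-Neo) was likewise transient in Huh-Lunet; 1b cells are stable. Cells were exposed to 3-fold serial compound dilutions for 72 h, then lysed. EC50s came from non-linear regression of Renilla luciferase signal.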

Series [2] concerns stable HCV 1a RLuc replicon cells (genotype 1a H77 replicon). The series is described as follows: HCV genotype 1a RLuc replicon reporter assay. The format is cell-based. Particulars: Hepatitis C virus; stable genotype 1a H77 RLuc replicon cells, 72 hours.
The test system of series [3] is stable HCV 2a JFH-1 Rluc replicon cells (L31 present in NS5A). The series is described as follows: HCV genotype 2a JFH-1 RLuc replicon reporter assay. The format is cell-based. The following applies: Hepatitis C virus, 72 h, read-out: 2a JFH (nM). Background: A replicon is a self-replicating genome or part of one, used to study replication in cells.
Series [4] concerns NS5A chimeric genotype 2a JFH-1 replicon with genotype 2a J6 strain NS5A gene (M31). The series is described as follows: HCV genotype 2a J6 NS5A chimeric replicon assay, transient (t). It is filed as cell-based. The following applies: Hepatitis C virus, 72 h, read-out: 2a J6 (t) (nM).
The test system of series [5] is NS5A chimeric genotype 2a JFH-1 replicon with genotype 2b MD2b-1 strain NS5A gene (M31). The series is described as follows: HCV genotype 2b NS5A chimeric replicon assay, transient (t). The format is cell-based. The following applies: Hepatitis C virus, 72 h, read-out: 2b (t) (nM). The essentials: as §1
Series [6] is described as follows: IV and PO single dose pharmacokinetic studies in SD rats. It is filed as in vivo. The following applies: Sprague-Dawley, rat, plasma, male SD rats, IV infusion 1 mg/kg, oral gavage 2 mg/kg, read-out: Rat % F. How it is done:
IV and PO Single Dose Pharmacokinetic Studies in SD Rats: The pharmacokinetics of selected compounds was characterized in male Sprague-Dawley (SD) rats (250-300 g). In this study, two groups of naïve purebred SD rats (N=3 per group, fasted over night) received the selected compound either as an intravenous (IV) infusion (1 mg/kg over 30 minutes) via the jugular vein or by oral gavage (2 mg/kg). The intravenous (IV) dosing vehicle was 5% ethanol, 35% polyethylene glycol 400 (PEG 400) and 60% water pH 2.0. The oral dosing vehicle was 5% ethanol, 55% PEG 400 and 40% citrate buffer pH 2.2.
Serial blood samples (approximately 0.3 mL each) were collected from jugular vein or other suitable vein at specified time points. For the IV infusion group, the blood samples were collected predose and at 0.25, 0.48, 0.58, 0.75, 1.5, 3, 6, 8, 12 and 24 hours after the start of infusion. For the oral group, the blood samples were collected predose and at 0.25, 0.50, 1, 2, 4, 6, 8, 12 and 24 hours after dosing. The blood samples were collected into Vacutainer™ tubes containing EDTA-K3 as the anti-coagulant and were centrifuged at approximately 4° C. to obtain plasma. The plasma samples were stored at −20° C. until analysis by LC/MS/MS.
A bioanalytical method utilizing high performance liquid chromatography coupled to tandem mass spectrometry (LC/MS/MS) was developed for analysis of the selected compound in rat plasma. Detection was performed using selected reaction monitoring (SRM); Ions representing the precursor (M+H)^+ species was selected in quadrupole 1 (Q1) and collided with argon gas in the collision cell (Q2) to generate specific product ion, which was subsequently monitored by quadrupole 3 (Q3). Standard curve and quality control samples were prepared in male rat plasma and processed in the same way as the test samples to generate quantitative data.
Pharmacokinetic parameters were generated using non-compartmental pharmacokinetic analysis (Phoenix WinNonlin, version 6.3). Values below the lower limit of quantification (LLOQ) were assigned a value of zero if predose and treated as missing thereafter. Area under the curve (AUC) was calculated using the linear trapezoidal rule. The oral bioavailability (% F) was determined by comparison of the area under the curve (AUC) of the compound and/or a metabolite generated in plasma following oral administration to that generated following intravenous administration.

For series [7], the system named is L31V/Y93H in genotype 1b NS5A replicon. Put plainly: Resistance mutant replicon assay, genotype 1b NS5A L31V/Y93H. Particulars: Hepatitis C virus, read-out: 1b L31V/Y93H (nM). The format is cell-based, HCV. In a few lines:
(§2)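 Site-directed mutagenesis → mutant Pi-RLuc replicon RNA → transient transfection, cured-51 Huh-7 cells → 3-fold serial cpd dilutions from DMSO stock, 72 h → RLuc read → EC50, non-linear regression.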

Series [8] deals with Q30R in genotype 1a NS5A replicon. The series is described as follows: Resistance mutant replicon assay, genotype 1a NS5A Q30R. The format is cell-based, HCV. Particulars: Hepatitis C virus, read-out: 1a Q30R (nM). How it is done:
Evaluation of cell-based anti-HCV activity: Antiviral potency (EC50) was determined using a Renilla luciferase (RLuc)-based HCV replicon reporter assay. To perform the assay for genotype 1 and 2a JFH-1, stable HCV 1a RLuc replicon cells (harboring a dicistronic genotype 1a H77 replicon that encodes a RLuc reporter), stable HCV lb RLuc replicon cells (harboring a dicistronic genotype 1b Conl replicon that encodes a RLuc reporter), or stable HCV 2a JFH-1 Rluc replicon cells (harboring a dicistronic genotype 2a JFH-1 replicon that encodes a RLuc reporter; with L31 present in NS5A) were dispensed into 384-well plates for EC50 assays. To perform the assay for genotype 2a (with M31 present in NS5A) or 2b, NS5A chimeric genotype 2a JFH-1 replicons that encodes a RLuc-Neo reporter and either genotype 2a J6 strain NS5A gene or genotype 2b MD2b-1 strain NS5A gene (both with M31 present) respectively, were either transiently transfected (t) into Huh-Lunet cells or were established as stably replicating replicon cells (s) is provided. Either cells were dispensed into 384-well plates for EC50 assays. To perform the assay for genotype 3 and 4, NS5A chimeric genotype 1b Conl replicons that encodes a Pi-RLuc reporter and either genotype 3a S52 strain NS5A gene or genotype 4a ED43 strain NS5A gene respectively, were transiently transfected (t) into Huh-Lunet cells, which were subsequently dispensed into 384-well plates. Compounds were dissolved in DMSO at a concentration of 10 mM and diluted in DMSO either manually or using an automated pipeting instrument. Serially 3-fold diluted compounds were either manually mixed with cell culture media and added to the seeded cells or directly added to the cells using an automated instrument. DMSO was used as a negative (solvent; no inhibition) control, and the protease inhibitor ITMN-191 was included at a concentration >100×EC50 as a positive control. 72 hours later, cells were lysed and Renilla luciferase activity quantified as recommended by the manufacturer (Promega-Madison, Wis.). Non-linear regression was performed to calculate EC50 values.
To determine the antiviral potency (EC50) against resistance mutants, resistance mutations, including M28T, Q30R, Q30H, Q30E, L31M, Y93C, Y93H, and Y93N in genotype 1a NS5A, Y93H and L31V/Y93H in genotype 1b NS5A, and Y93H for in genotype 3a NS5A, were introduced individually into either 1a Pi-Rluc or 1b Pi-Rluc replicons by site directed mutagenesis. Replicon RNA of each resistant mutant was transiently transfected into Huh-7-derived cured-51 cells and antiviral potency was determined on these transfected cells as described above.

Series [9] relates to Y93H in genotype 1a NS5A replicon. Put plainly: Resistance mutant replicon assay, genotype 1a NS5A Y93H. It is filed as cell-based, HCV. Particulars: Hepatitis C virus, read-out: 1a Y93H (nM). The essentials: as §2
The test system of series [10] is Y93N in genotype 1a NS5A replicon. The series is described as follows: Resistance mutant replicon assay, genotype 1a NS5A Y93N. The format is cell-based, HCV. Particulars: Hepatitis C virus, read-out: 1a Y93N (nM). The essentials:
as §2

Series [11] has as its system NS5A chimeric genotype 2a JFH-1 replicon with genotype 2b MD2b-1 strain NS5A gene (M31). Put plainly: HCV genotype 2b NS5A chimeric replicon assay, stable (s). It is filed as cell-based. Particulars: Hepatitis C virus, 72 h, read-out: 2b (s) (nM).
Series [12] has as its system NS5A chimeric genotype 1b Con1 replicon with genotype 3a S52 strain NS5A gene. The series is described as follows: HCV genotype 3a NS5A chimeric replicon assay. It is filed as cell-based. Particulars: Hepatitis C virus, 72 h, read-out: 3a (nM). In a few lines:
as §1

Series [13] relates to NS5A chimeric genotype 1b Con1 replicon with genotype 4a ED43 strain NS5A gene. Put plainly: HCV genotype 4a NS5A chimeric replicon assay. The format is cell-based. The following applies: Hepatitis C virus, 72 h, read-out: 4a (s) (nM).
Series [14] concerns Q30E in genotype 1a NS5A replicon. Put plainly: Resistance mutant replicon assay, genotype 1a NS5A Q30E. It is filed as cell-based, HCV. Particulars: Hepatitis C virus, read-out: 1a Q30E (nM). In a few lines: as §2
Series [15] relates to Y93H in genotype 3a NS5A replicon. The series is described as follows: Resistance mutant replicon assay, genotype 3a NS5A Y93H. It is filed as cell-based, HCV. Particulars: Hepatitis C virus, read-out: 3a Y93H (nM). In a few lines: as §2

Take `COC(=O)N[C@H](C(=O)N1[C@@H](C)CC[C@H]1c1ncc(-c2ccc3c(c2)COc2cc4c(ccc5nc([C@@H]6CCCN6C(=O)[C@@H](NC(=O)OC)C6CCOCC6)[nH]c54)cc2-3)[nH]1)C(C)C` [Comp 14, reference compound]: the EC50 was 0.025 nM in series [1]; 0.025 nM in [2]; 0.01 nM in series [3]; 0.053 nM in series [4]; 0.036 nM in [5]; 0.13 nM in series [7]. The EC50 in series [8] came out at 1.2 nM; in series [9], 3.66 nM; in [10], 1.75 nM. Besides, in series [6], the bioavailability worked out at 6.88%.
As for `COC(=O)N[C@H](C(=O)N1[C@@H](C)CC[C@H]1c1ncc(-c2ccc3c(c2)COc2cc4c(ccc5nc([C@@H]6CC[C@H](C)N6C(=O)[C@@H](NC(=O)OC)[C@@H]6CCCOC6)[nH]c54)cc2-3)[nH]1)C(C)C` [Example AJ, Methyl{(1S)-2-[(2S,5S)-2-methyl-5-(9-{2-[(2S,5S)-1-{(2S)-2-[(methoxycarbonyl)amino]-3-methylbutanoyl}-5-methylpyrrolidin-2-yl]-1H-imidazol-5-yl}-1,11-dihydroisochromeno[4′,3′:6,7]naphtho[1,2-d]imidazol-2-yl)pyrrolidin-1-yl]-2-oxo-1-[(3S)-tetrahydro-2H-pyran-3-yl]ethyl}carbamate], the EC50 in series [1] was determined as 0.021 nM; in series [2], 0.016 nM; in series [3], 0.019 nM; in [4] it was 0.059 nM; in series [11], 0.057 nM; in [12], 0.035 nM. Further, the EC50 was determined as 0.018 nM in series [13]; 44 nM in series [7]; 0.16 nM in [8]; 2.7 nM in series [14]; 4.3 nM in series [10]; 3.73 nM in series [15].
